{"source": "ChEMBL document CHEMBL5316357", "about": "“Discovery of Linvencorvir (RG7907), a Hepatitis B Virus Core Protein Allosteric Modulator, for the Treatment of Chronic HBV Infection” (J Med Chem, 2023)", "key": {"[1]": {"experiment": "Oral bioavailability in mouse plasma at 3 mg/kg", "assay_type": "ADME, organism-based", "settings": "in vivo"}, "[2]": {"experiment": "Octanol-water partition coefficient, logD of the compound at pH 7.4", "assay_type": "physicochemical"}, "[3]": {"experiment": "Half life in minipig at 2 mg/kg,iv by LC-MS/MS analysis", "assay_type": "ADME, organism-based, Sus scrofa domesticus", "settings": "pig, in vivo"}, "[4]": {"experiment": "AUClast in minipig at 2 mg/kg,iv by LC-MS/MS analysis", "assay_type": "ADME, organism-based, Sus scrofa domesticus", "set-up": "dose 2 mg/kg, route iv", "settings": "pig, in vivo"}, "[5]": {"experiment": "Cmax in male cynomolgus monkey at 30 mg/kg,po by LC-MS/MS analysis", "assay_type": "ADME, organism-based, Macaca fascicularis", "set-up": "dose 30 mg/kg, route po", "settings": "in vivo"}, "[6]": {"experiment": "Cmax in female cynomolgus monkey at 3 mg/kg,po by LC-MS/MS analysis", "assay_type": "ADME, organism-based, Macaca fascicularis", "set-up": "dose 3 mg/kg, route po", "settings": "in vivo"}, "[7]": {"experiment": "Tmax in male cynomolgus monkey at 3 mg/kg,po by LC-MS/MS analysis", "assay_type": "ADME, organism-based, Macaca fascicularis", "settings": "in vivo"}, "[8]": {"experiment": "Tmax in female minipig at 10 mg/kg,po by LC-MS/MS analysis", "assay_type": "ADME, organism-based, Sus scrofa domesticus", "settings": "pig, in vivo"}, "[9]": {"experiment": "Half life in male Wistar Han rat at 3 mg/kg,po by LC-MS/MS analysis", "assay_type": "ADME, organism-based", "settings": "in vivo"}, "[10]": {"experiment": "Half life in female Wistar Han rat at 3 mg/kg,po by LC-MS/MS analysis", "assay_type": "ADME, organism-based", "settings": "in vivo"}, "[11]": {"experiment": "Half life in female cynomolgus monkey at 10 mg/kg,po by LC-MS/MS analysis", "assay_type": "ADME, organism-based, Macaca fascicularis", "settings": "in vivo"}, "[12]": {"experiment": "AUClast in male cynomolgus monkey at 30 mg/kg,po by LC-MS/MS analysis", "assay_type": "ADME, organism-based, Macaca fascicularis", "set-up": "dose 30 mg/kg, route po", "settings": "in vivo"}, "[13]": {"experiment": "AUClast in male minipig at 10 mg/kg,po by LC-MS/MS analysis", "assay_type": "ADME, organism-based, Sus scrofa domesticus", "set-up": "dose 10 mg/kg, route po", "settings": "pig, in vivo"}, "[14]": {"experiment": "Oral bioavailability in male cynomolgus monkey at 30 mg/kg by LC-MS/MS analysis", "assay_type": "ADME, organism-based, Macaca fascicularis", "settings": "in vivo"}, "[15]": {"experiment": "Oral bioavailability in female cynomolgus monkey at 3 mg/kg by LC-MS/MS analysis", "assay_type": "ADME, organism-based, Macaca fascicularis", "settings": "in vivo"}, "[16]": {"experiment": "Toxicity in rat assessed as NOAEL administrated upto 28 days", "settings": "in vivo, time < 28 day"}}}
{"smiles": "CCOC(=O)C1=C(CN2CCN3C(=O)N(CC(C)(C)C(=O)O)C[C@@H]3C2)NC(c2nccs2)=N[C@H]1c1cccc(F)c1C", "note": "[LINVENCORVIR]", "values": [{"measurement": "F", "setting": "[1]", "result": 33, "unit": "%"}, {"measurement": "logD", "setting": "[2]", "result": 1.75}, {"measurement": "half-life", "setting": "[3]", "result": 2.19, "unit": "h"}, {"measurement": "AUC(0-t)", "setting": "[4]", "result": 1370, "unit": "ng·h/mL"}, {"measurement": "Cmax", "setting": "[5]", "result": 2870, "unit": "ng/mL"}, {"measurement": "Cmax", "setting": "[6]", "result": 100, "unit": "ng/mL"}, {"measurement": "Tmax", "setting": "[7]", "result": 0.25, "unit": "h"}, {"measurement": "Tmax", "setting": "[8]", "result": 0.5, "unit": "h"}, {"measurement": "half-life", "setting": "[9]", "result": 1.87, "unit": "h"}, {"measurement": "half-life", "setting": "[10]", "result": 2.15, "unit": "h"}, {"measurement": "half-life", "setting": "[11]", "result": 8.13, "unit": "h"}, {"measurement": "AUC(0-t)", "setting": "[12]", "result": 7120, "unit": "ng·h/mL"}, {"measurement": "AUC(0-t)", "setting": "[13]", "result": 1240, "unit": "ng·h/mL"}, {"measurement": "bioavailability", "setting": "[14]", "result": 25.8, "unit": "%"}, {"measurement": "bioavailability", "setting": "[15]", "result": 14.5, "unit": "%"}, {"measurement": "NOAEL at 672 h", "setting": "[16]", "result": 250, "unit": "mg/kg"}]}
